Laboratory results published in PMC12364708, “Structures and mechanism of the AUX/LAX transporters involved in auxin import” (Nature Plants, 2025).

Legend:
LAX3 (residues 44–470) [1] = target: T1, LAX3 (residues 44–470) (Arabidopsis thaliana, UniProt Q9CA25); test: cryo-EM structure, […] Å; details: pH 7.5; 5 mM 2-NOA; LMNG; central binding pocket, fully occluded
T1 construct: N-terminally truncated, residues 44-470; C-terminal TEV site and His10 tag, cut with TEV; expressed in Saccharomyces cerevisiae DSY-5; LMNG/CHS; 47 kDa
T1 sequence (Q9CA25 44-470): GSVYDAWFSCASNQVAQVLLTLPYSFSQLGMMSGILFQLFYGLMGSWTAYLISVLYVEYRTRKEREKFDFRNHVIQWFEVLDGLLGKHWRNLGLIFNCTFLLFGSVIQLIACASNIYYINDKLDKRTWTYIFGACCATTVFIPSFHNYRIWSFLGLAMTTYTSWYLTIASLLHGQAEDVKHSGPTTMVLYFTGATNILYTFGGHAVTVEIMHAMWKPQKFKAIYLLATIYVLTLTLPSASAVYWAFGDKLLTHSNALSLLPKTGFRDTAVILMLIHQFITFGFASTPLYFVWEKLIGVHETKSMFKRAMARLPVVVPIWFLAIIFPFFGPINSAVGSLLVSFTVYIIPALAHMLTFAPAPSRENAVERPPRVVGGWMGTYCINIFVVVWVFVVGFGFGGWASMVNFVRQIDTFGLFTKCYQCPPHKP

LAX3 = target: T2, LAX3 (Arabidopsis thaliana, UniProt Q9CA25); test: competition with 3H-IAA uptake into Xenopus oocytes; assay type: cell-based; details: 100 nM 3H-IAA; pH 6, room temperature, 8 min; competitive
T2 construct: full-length wild type, cRNA injected into Xenopus laevis oocytes
T2 sequence (Q9CA25 1-470): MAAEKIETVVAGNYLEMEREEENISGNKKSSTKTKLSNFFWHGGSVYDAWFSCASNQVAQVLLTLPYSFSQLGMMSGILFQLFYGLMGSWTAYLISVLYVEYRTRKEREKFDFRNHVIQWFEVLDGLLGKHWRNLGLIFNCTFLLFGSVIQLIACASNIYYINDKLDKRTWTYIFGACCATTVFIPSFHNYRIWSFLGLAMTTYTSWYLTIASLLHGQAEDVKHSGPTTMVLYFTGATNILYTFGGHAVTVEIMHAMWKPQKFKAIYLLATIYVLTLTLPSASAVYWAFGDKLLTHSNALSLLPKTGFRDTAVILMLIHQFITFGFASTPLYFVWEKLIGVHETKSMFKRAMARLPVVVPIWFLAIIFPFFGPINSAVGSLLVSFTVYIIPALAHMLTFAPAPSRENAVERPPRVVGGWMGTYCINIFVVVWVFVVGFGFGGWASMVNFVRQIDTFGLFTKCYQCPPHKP

LAX3 (residues 44–470) [2] = target: T1, LAX3 (residues 44–470); test: cryo-EM structure, […] Å; details: pH 7.5; 5 mM IAA; LMNG; central binding pocket, inward semi-occluded

## O=C(O)COc1ccc2ccccc2c1 [2-NOA]
LAX3 (residues 44–470) [1]
  cryo-EM structure, 2.88 Å: 2-NOA bound LAX3 fully occluded: PDB 9H63 and EMD-51896
LAX3
  inhibition of IAA uptake at 10 μM: these data demonstrate a competitive effect of all three compounds

## O=C(O)Cc1c[nH]c2ccccc12 [IAA]
LAX3 (residues 44–470) [2]
  cryo-EM structure, 3.21 Å: IAA-bound LAX3 inward semi-occluded: PDB 9H61 and EMD-51894

## O=C(O)COc1cccc2ccccc12 [1-NOA]
LAX3
  inhibition of IAA uptake at 10 μM: these data demonstrate a competitive effect of all three compounds

## O=C(O)COc1ccc(Cl)cc1Cl [2,4-D]
LAX3
  inhibition of IAA uptake at 10 μM: these data demonstrate a competitive effect of all three compounds
